For assay [1], the system named is ZR-75-1 (breast cancer). In words: In vitro cytotoxicity of camptothecin analogues (CellTiter-Glo). It is filed as cell-based. The note with it: Homo sapiens, ZR-75-1, 120 h, read-out: pIC50 ZR-75 (converted). The protocol: (§1) Cytotoxicity of the camptothecin analogues was assessed in vitro as follows.
(§2) In vitro potency was assessed on multiple cancer cell lines: SK-BR-3 (breast cancer), SKOV-3 (ovarian cancer), Calu-3 (lung cancer), ZR-75-1 (breast cancer) and MDA-MB-468 (breast cancer). Serial dilutions of camptothecin analogues were prepared in RPMI 1640+10% FBS, and 20 μL of each dilution was added to 384-well plates. Cells cultured in log-phase growth were detached by brief incubation in 0.05% Trypsin and resuspended in respective culturing media at 20,000 cells/mL (with the exception of ZR-75 cells, which were resuspended at 10,000 cells/mL). 50 μL of cell suspension was then added to the plates containing test articles. Cells were incubated with test articles for 4 d at 37° C. (with the exception of ZR-75 cells, which were incubated for 5 d). Growth inhibition was assessed by CellTiter-Glo® (Promega Corporation, Madison, WI) and luminescence was measured on a plate reader. IC50 values were determined by GraphPad Prism (GraphPad Software, San Diego CA).
In general terms: In ATP-based viability assays light output follows the ATP content of the culture.

Assay [2] has as its system SK-BR-3 (breast cancer). Described as above. Type of assay: cell-based. The note with it: Homo sapiens, SK-BR-3, 96 h, read-out: pIC50 SKBR-3 (converted). The protocol:
as §1, §2

For assay [3], the system named is Calu-3 (lung cancer). Described as above. Type of assay: cell-based. To be noted: Homo sapiens, Calu-3, 96 h, read-out: pIC50 Calu-3 (converted). How it is done:
as §1, §2

The subject of assay [4] is SKOV-3 (ovarian cancer). The description is as above. It is filed as cell-based. To be noted: Homo sapiens, SK-OV-3, 96 h, read-out: pIC50 SKOV-3 (converted). How it is done:
as §1, §2

Assay [5] concerns MDA-MB-468 (breast cancer). The description is as above. Type of assay: cell-based. The note with it: Homo sapiens, MDA-MB-468, 96 h, read-out: pIC50 MDA-MB-468 (converted). The protocol:
as §1, §2

For assay [6], the system named is Construct 1 (chimeric human NaPi2b, region 239-259). In words: Binding region mapping, flow cytometry on transfected HEK293-6e cells. The note with it: 24 hours at 4° C. From the text:
(§3) NaPi2b constructs containing deletions in the main extracellular loop of human NaPi2b, as well as chimeric NaPi2b/NaPi2c constructs concerning this main loop, were generated.
(§4) As a complementary strategy, two additional constructs were designed in which the relevant region of the main loop was deleted such as to mimic NaPi2c/NaPi2a main extracellular loop (Constructs 6-7 in Table 52.1). Clones were generated at GenScript Biotech (Piscataway, NJ).
(§5) Constructs were expressed in HEK293-6e cells as follows. Cells were maintained under standard culture conditions (37° C./5% CO2) with shaking at 110 rpm for suspension and cultured in FreeStyle™ 293 Expression Medium (Thermo Fisher Scientific, Waltham, MA) supplemented with 1% fetal bovine serum (Thermo Fisher Scientific, Waltham, MA) and 1× Penicillin-Streptomycin (Thermo Fisher Scientific, Waltham, MA). Cells were transfected with clones expressing the constructs listed in Table 52.1, at 1 μg of DNA per 1 million cells, using 293Fectin™ Transfection Reagent (Thermo Fisher Scientific, Waltham, MA) and Opti-MEM™ I Reduced Serum Medium (Thermo Fisher Scientific, Waltham, MA), and incubated for 24 hours under standard culture conditions (37° C./5% CO2/110 rpm). Following transfection, cells were seeded at 50,000 cells/well in conical-bottom 96-well plates and treated with a serial dilution of test antibody for 24 hours at 4° C. to prevent internalization. Cells were treated with final concentrations of all humanized antibodies of 200, 20, or 2 nM. Cells were treated with final concentrations of the reference anti-NaPi2a rabbit antibody of 50, 5, or 0.5 nM. […] Following incubation and washing, fluorescence was detected by flow cytometry on a BD LSRFortessa™ Cell Analyzer (BD Biosciences, Franklin Lake, NJ) with 1,000 minimum events collected per well. […] Background-subtracted AF647 Mean Fluorescence Intensity (MFI) values were calculated by subtracting the average MFI of three technical replicates of unstained (no primary antibody) cells.
(In general: A flow cytometer gives signals particle by particle.)

The subject of assay [7] is Construct 2 (chimeric human NaPi2b, region 280-301). The assay is described as above. To be noted: 24 hours at 4° C.
Description: as §3, §4, §5

Turning to `CC[C@@]1(O)C(=O)OCc2c1cc1n(c2=O)Cc2c-1nc1cc(F)c(C)cc1c2CNS(=O)(=O)c1ccccc1` [Compound 125, (S)-N-((4-ethyl-8-fluoro-4-hydroxy-9-methyl-3,14-dioxo-3,4,12,14-tetrahydro-1H-pyrano[3′,4′:6,7]indolizino[1,2-b]quinolin-11-yl)methyl)benzenesulfonamide], the IC50 in assay [1] was 1.32 nM; in assay [2], 1.32 nM; in assay [3] it was 2.82 nM; in assay [4], 7.08 nM; in assay [5], 3.8 nM.

As to `CC[C@@]1(O)C(=O)OCc2c1cc1n(c2=O)Cc2c-1nc1cc(F)c(C)cc1c2CNS(C)(=O)=O` [Compound 122, (S)-N-((4-ethyl-8-fluoro-4-hydroxy-9-methyl-3,14-dioxo-3,4,12,14-tetrahydro-1H-pyrano[3′,4′:6,7]indolizino[1,2-b]quinolin-11-yl)methyl)methanesulfonamide], the IC50 in assay [1] was 1.29 nM; in assay [2], 1.12 nM; in assay [3] it was 3.72 nM; in assay [4], 9.12 nM; in assay [5] it was 1.1 nM.

Take `CC[C@@]1(O)C(=O)OCc2c1cc1n(c2=O)Cc2c-1nc1cc(F)c(C)cc1c2CNS(N)(=O)=O` [Compound 131, (S)-((4-ethyl-8-fluoro-4-hydroxy-9-methyl-3,14-dioxo-3,4,12,14-tetrahydro-1H-pyrano[3′,4′:6,7]indolizino[1,2-b]quinolin-11-yl)methyl)sulfamide]: the IC50 in assay [1] was 0.955 nM; in assay [2], 1.05 nM; in assay [3], 9.12 nM; in assay [5], 9.12 nM.

With `CC[C@@]1(O)C(=O)OCc2c1cc1n(c2=O)Cc2c-1nc1cc(F)c(C)cc1c2CN1CCN(c2ccc(N)cc2)CC1` [Compound 108, (S)-11-((4-(4-aminophenyl)piperazin-1-yl)methyl)-4-ethyl-8-fluoro-4-hydroxy-9-methyl-1,12-dihydro-14H-pyrano[3′,4′:6,7]indolizino[1,2-b]quinoline-3,14(4H)-dione], the IC50 was 18.6 nM in assay [1]; 29.5 nM in assay [2]; 40.7 nM in assay [3]; 55 nM in assay [4]; 47.9 nM in assay [5].

For `CC[C@@]1(O)C(=O)OCc2c1cc1n(c2=O)Cc2c-1nc1cc(F)c(N)cc1c2CN=[N+]=[N-]` [Compound 152, (S)-9-amino-11-(azidomethyl)-4-ethyl-8-fluoro-4-hydroxy-1,12-dihydro-14H-pyrano[3′,4′:6,7]indolizino[1,2-b]quinoline-3,14(4H)-dione], the IC50 in assay [2] was 3.24 nM; in assay [3], 1.48 nM; in assay [4], 2.88 nM; in assay [5] it was 5.01 nM.

For `CC[C@@]1(O)C(=O)OCc2c1cc1n(c2=O)Cc2c-1nc1cc(F)c(OC)cc1c2CNC(=O)NCc1ccc(N)cc1` [Compound 135, (S)-1-(4-aminobenzyl)-3-((4-ethyl-8-fluoro-4-hydroxy-9-methoxy-3,14-dioxo-3,4,12,14-tetrahydro-1/- pyrano[3′,4′:6,7]indolizino[1,2-b]quinolin-11-yl)methyl)urea], the IC50 in assay [1] was 13.2 nM; in assay [2], 12.3 nM; in assay [5], 10.7 nM.

Regarding MX35 [MX35 (v18992)], the “Background-Subtracted AF647 Mean Fluorescence Intensity” value in assay [6] (antibody 2.0 nM) is reported as 1,893; in assay [6] (antibody 20.0 nM), 1,816; in assay [6] (antibody 200.0 nM) it was 1,718; in assay [7] (antibody 20.0 nM) it was 1,246; in assay [7] (antibody 200.0 nM) it was 1,356.

With `CC[C@@]1(O)C(=O)OCc2c1cc1n(c2=O)Cc2c-1nc1cc(F)c(C)cc1c2CN1CCO[C@@H](CO)C1` [Compound 113, (S)-4-ethyl-8-fluoro-4-hydroxy-11-(((R)-2-(hydroxymethyl)morpholino)methyl)-9-methyl-1,12-dihydro-14H-pyrano[3′,4′:6,7]indolizino[1,2-b]quinoline-3,14(4H)-dione], the IC50 was 2.19 nM in assay [1]; 1.95 nM in assay [2]; 3.02 nM in assay [3]; 4.27 nM in assay [4]; 3.39 nM in assay [5].

Regarding `CC[C@@]1(O)C(=O)OCc2c1cc1n(c2=O)Cc2c-1nc1cc(F)c(OC)cc1c2CNS(=O)(=O)c1ccc(N)cc1` [Compound 128, (S)-4-amino-N-((4-ethyl-8-fluoro-4-hydroxy-9-methoxy-3,14-dioxo-3,4,12,14-tetrahydro-1H-pyrano[3′,4′:6,7]indolizino[1,2-b]quinolin-11-yl)methyl)benzenesulfonamide], the IC50 in assay [1] was 4.27 nM; in assay [2] it was 5.25 nM; in assay [4], 18.2 nM; in assay [5], 8.32 nM.

With `CC[C@@]1(O)C(=O)OCc2c1cc1n(c2=O)Cc2c-1nc1cc(F)c(C)cc1c2CN1C2CCC1(CO)CC2` [Compound 121], the IC50 is 0.148 nM in assay [2], 0.145 nM in assay [3], 0.195 nM in assay [4] and 0.269 nM in assay [5].

`CC[C@@]1(O)C(=O)OCc2c1cc1n(c2=O)Cc2c-1nc1cc(F)c(C)cc1c2CNS(=O)(=O)c1ccc(N)cc1` [Compound 127, (S)-4-amino-N-((4-ethyl-8-fluoro-4-hydroxy-9-methyl-3,14-dioxo-3,4,12,14-tetrahydro-1H-pyrano[3′,4′:6,7]indolizino[1,2-b]quinolin-11-yl)methyl)benzenesulfonamide]: the IC50 was 5.25 nM in assay [1]; 3.31 nM in assay [2]; 9.33 nM in assay [3]; 14.5 nM in assay [4]; 3.8 nM in assay [5].

Regarding `CC[C@@]1(O)C(=O)OCc2c1cc1n(c2=O)Cc2c-1nc1cc(F)c(C)cc1c2CN1CCSCC1CO` (stereo partly drawn) [Compound 114, (4S)-4-ethyl-8-fluoro-4-hydroxy-11-((3-(hydroxymethyl)thiomorpholino)methyl)-9-methyl-1,12-dihydro-14H-pyrano[3′,4′:6,7]indolizino[1,2-b]quinoline-3,14(4H)-dione], the IC50 is 0.107 nM in assay [2], 0.0933 nM in assay [3], 0.178 nM in assay [4] and 0.417 nM in assay [5].
